Assay results: patent publication US9561239B2, “Compositions and methods for inhibiting norovirus infection” (Children's Hospital Medical Center, priority 2013, dated 2017)
Where two headings read alike, the source gives them in different places.

Experiments:
[1] = target: P dimers of VA387 (GII.4) binding to saliva HBGAs (Norovirus GII.4 (Human calicivirus NLV/VA98387/1998), UniProt Q913Z3); test: Saliva-based NoV/HBGA blocking assay; parameters: species or system Norovirus VA387 (GII.4)
Description: (§1) Saliva-based NoV-HBGA binding assays were performed as described previously using P dimers of VA387 (GII.4) as NoV surrogates and saliva samples and/or synthetic oligosaccharides as HBGA sources. Briefly, synthetic oligosaccharides and/or boiled saliva samples with defined HBGAs phenotype were coated on 96-well microtiter plates, after blocking with nonfat milk, P dimer of VA387 were added. The bound P dimer was detected using a guinea pig antiserum against NoVs VLPs, followed by the addition of horseradish peroxidase (HRP)-conjugated goat anti-guinea pig IgG. The bound HRP conjugates were colorized by the TMB kit (Kirkegaard & Perry Laboratories), which was read an EIA spectrum reader (Tecan). The synthetic oligosaccharide-PAA conjugates (2 μg/ml, GlycoTech Corporation, Rockville, Md.) were captured to a microtiter plate through coated streptavidin (5 μg/ml).
(§2) Blocking effects of the hit compounds were measured by a pre-incubation of the P dimers with the compounds at given concentrations for 30 min before the P dimers were added to the coated saliva samples or HBGA oligosaccharides in a binding assay. The blocking activity of a compound was defined as its concentration yielding 50% inhibition (IC50) in the binding assay. IC50 calculation was performed using Probit regression analysis and correlation analysis between IC50 and Ki values was performed with nonparametric Spearman's r (two-tailed) by using SPSS statistical software version 13.0 (SPSS, Chicago, Ill.).

[2] = target: VA387 P dimer binding to the synthetic A and B oligosaccharides (Norovirus GII.4 (Human calicivirus NLV/VA98387/1998), UniProt Q913Z3); test: Synthetic HBGA oligosaccharide-PAA conjugate blocking assay; parameters: species or system Norovirus VA387 (GII.4)
VA387 P dimer binding to the synthetic A and B oligosaccharides, sequence (Q913Z3 214-539): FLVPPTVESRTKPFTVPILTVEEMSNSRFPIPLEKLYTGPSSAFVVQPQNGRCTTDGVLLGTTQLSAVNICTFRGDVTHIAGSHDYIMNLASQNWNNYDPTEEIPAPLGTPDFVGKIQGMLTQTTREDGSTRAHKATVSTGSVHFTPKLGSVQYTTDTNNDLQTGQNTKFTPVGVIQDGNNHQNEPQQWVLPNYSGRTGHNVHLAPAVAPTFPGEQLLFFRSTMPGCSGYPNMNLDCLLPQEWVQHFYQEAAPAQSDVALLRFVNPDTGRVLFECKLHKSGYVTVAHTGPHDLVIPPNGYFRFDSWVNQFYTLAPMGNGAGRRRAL
Description: as §1, §2

MTS cytotoxicity assay = type: cell-based, human; rhesus monkey; details: HeLa and LLC-MK2 cells, 3 days incubation; cell line per value not stated
Description: This assay was performed using CellTiter 96 aqueous nonradioactive cell proliferation kits (Promega, Madison, Wis.) as described elsewhere. Briefly, HeLa and LLC-MK2 cells were seeded at 5×10^4 cells/ml onto a 96-well plate overnight. After an incubation with each compound at various concentrations for 3 days (the compound was added one time at the beginning of the incubation), the culture medium was replaced with fresh one with 100 μl of MTS-phenazine methosulfate/well. After a further incubation at 37° C. for 2 h, the color products of MTS were measured with a plate reader at 490 nm. The cytotoxicities of individual compounds were indicated by the decrease in cellular reduction of MTS into the colored product. The 50% cytotoxic concentrations (CC50) were determined as the concentrations of the compounds that caused 50% inhibition of cell growth compared with that of control cells without a compound.

[3] = IC50 Saliva A, blocking assay, type A saliva as HBGA source, mean ± standard deviation
[4] = IC50 Saliva B, blocking assay, type B saliva as HBGA source, mean ± standard deviation
[5] = Activity (IC50), blocking the binding of NoV P dimer to HBGAs, given as range or bound
[6] = blocking assay, type A saliva as HBGA source, mean ± standard deviation, read-out: IC50 Saliva A
[7] = blocking assay, type B saliva as HBGA source, mean ± standard deviation, read-out: IC50 Saliva B

P dimers of VA387 (GII.4) binding to saliva HBGAs, sequence (Q913Z3 214-539): as above

In the case of C[C@]12CC[C@H](O)C=C1CC[C@@H]1C2CC[C@@]2(C)C1CC[C@@]21CCC(=O)O1 (stereo partly drawn) [Compound 15], the IC50 [1, 3] is reported as 28.5 ± 1.54 µM and the IC50 [1, 4] is reported as 29.4 ± 1.24 µM.
Compound CC(=O)C1=CCC2[C@@H]3CC=C4C[C@H](O)CC[C@]4(C)C3CC[C@]12C (stereo partly drawn) [Compound 14] has an IC50 [1, 5] of 20 to 40 µM, an IC50 [1, 3] of 24.8 ± 2.02 µM and an IC50 [1, 4] of 25.1 ± 1.32 µM.
O=C1CC(c2ccc([N+](=O)[O-])cc2)c2ccc3ccccc3c2N1 (stereo not drawn) [Compound 13] gave an IC50 [1, 5] of 20 to 40 µM, an IC50 [1, 6] of 24.5 ± 0.98 µM and an IC50 [1, 7] of 26.3 ± 1.24 µM.
Compound Cc1ccc(C2CC(=O)Nc3c2ccc2ccccc32)cc1[N+](=O)[O-] (stereo not drawn) [Compound 17] has an IC50 [1, 5] of 20 to 40 µM and an IC50 [1, 7] of 33.7 ± 1.27 µM.
C[C@]12CC[C@H](O)C=C1CC[C@@H]1C2CC[C@@]2(C)C1CC[C@@]21CCC(=O)O1 (stereo partly drawn) [Compound 11] gave an IC50 [1, 5] of 20 to 40 µM, an IC50 [1, 3] of 22.7 ± 1.36 µM and an IC50 [1, 4] of 23.7 ± 1.28 µM.
For C[C@]12CC[C@H]3[C@@H](CCC4=C/C(=N/OCC(=O)NCC(=O)O)CC[C@@]43C)[C@@H]1CC[C@H]2O [Compound 10], the IC50 [1, 5] was 10 to 20 µM, the IC50 [1, 3] was 18.7 ± 0.35 µM and the IC50 [1, 4] was 18.6 ± 0.62 µM.
Compound C[C@]12CCC3C(CC[C@H]4CC=CC[C@]34C)C1CC/C2=N/NC(N)=S (stereo partly drawn) [Compound 5] has an IC50 [1, 6] of 8.7 ± 1.03 µM, an IC50 [1, 7] of 8.97 ± 0.63 µM and an IC50 [2] of under 10 µM.
With Cc1noc2c1C1(C)CCC3C(CC=C4CC(O)CCC43C)C1C2 (stereo not drawn) [Compound 18] the IC50 [1, 5] was 20 to 40 µM, the IC50 [1, 6] was 33.9 ± 1.67 µM and the IC50 [1, 7] was 34.5 ± 1.93 µM.
C[C@]12CC[C@H](O)C[C@@H]1CC[C@@H]1[C@@H]2CC[C@@]2(C)[C@H]1CC[C@]2(C)O [Compound 3] showed an IC50 [1, 7] of 3.39 ± 0.24 µM and an IC50 [2] of under 10 µM.
In the case of CC(=O)OCC(=O)C1CCC2C3CC=C4CC(O)CCC4(C)C3CCC12C (stereo not drawn) [Compound 16], the IC50 [1, 5] is reported as 20 to 40 µM, the IC50 [1, 6] is reported as 30.9 ± 1.04 µM and the IC50 [1, 7] is reported as 30.1 ± 1.35 µM.
With CC(=O)C1CCC2C3CC[C@H]4CC(O)CCC4(C)C3CCC12C (stereo partly drawn) [Compound 2] the IC50 [1, 5] was 1 to 10 µM, the IC50 [1, 3] was 2.9 ± 0.33 µM and the IC50 [1, 4] was 2.93 ± 0.18 µM. The IC50 [2] was under 10 µM and the CC50 at 3 days (MTS cytotoxicity assay) was 267 µM.
Work on Nc1ccc2c(c1)C1C=CCC1C(c1ccc([N+](=O)[O-])cc1)N2 (stereo not drawn) [Compound 6] yielded an IC50 [1, 5] of 10 to 20 µM, an IC50 [1, 6] of 12.6 ± 0.87 µM and an IC50 [1, 7] of 12.8 ± 0.64 µM.
For O=C(O)c1ccc(C2Nc3c(F)cccc3C3C=CCC32)cc1 (stereo not drawn) [Compound 20], the IC50 [1, 5] was 20 to 40 µM, the IC50 [1, 6] was 38 ± 2.01 µM and the IC50 [1, 7] was 39.4 ± 1.53 µM.
In the case of C/C(=N/O)C1=CCC2C3CC[C@H]4C/C(=N\O)CC[C@]4(C)C3CC[C@]12C (stereo partly drawn) [Compound 1], the IC50 [1, 6] is reported as 2.38 ± 0.15 µM, the IC50 [1, 7] is reported as 2.54 ± 0.21 µM and the IC50 [2] is reported as under 10 µM.
In the case of CC1CCc2c(sc3ncn(C(C)C(=O)N/N=C/c4c(O)ccc5ccccc45)c(=O)c23)C1 (stereo not drawn) [Compound 9], the IC50 [1, 6] is reported as 17 ± 1.06 µM and the IC50 [1, 7] is reported as 16.8 ± 0.87 µM.
Work on CC12CCC3C(CCC4CC(=O)CCC43C)C1CCC2O (stereo not drawn) [Compound 19] yielded an IC50 [1, 5] of 20 to 40 µM, an IC50 [1, 6] of 36.9 ± 1.47 µM and an IC50 [1, 7] of 35.7 ± 1.06 µM.
CNc1cc([N+](=O)[O-])cc2c1NC(c1ccccn1)C1CC=CC21 (stereo not drawn) [Compound 12] gave an IC50 [1, 5] of 20 to 40 µM.
For O=[N+]([O-])c1ccc2c(c1)C1C=CCC1C(C1CC=CCC1)N2 (stereo not drawn) [Compound 7], the IC50 [1, 5] was 10 to 20 µM and the IC50 [1, 7] was 13.1 ± 0.87 µM.
CC1(C)CC(=O)C2=C(C1)c1c(ccc3ccccc13)NC2 [Compound 8] gave an IC50 [1, 5] of 10 to 20 µM, an IC50 [1, 6] of 14.1 ± 0.53 µM and an IC50 [1, 7] of 14.9 ± 0.71 µM.
In the case of CC(CCC(=O)O)C1CCC2C3CC=C4CC(O)CCC4(C)C3CCC12C (stereo not drawn) [Compound 4], the IC50 [1, 7] is reported as 7.65 ± 0.33 µM and the IC50 [2] is reported as under 10 µM.
